Results reported in patent US20250235434A1, “RIFABUTIN ANALOGS FOR THE TREATMENT OF DISEASE” (BIOVERSYS AG, priority 2022, published 2025).
Converted amounts (≈) assume the structure as drawn. Read-outs that look alike come from different tables or passages of the source.

How the values were obtained:
Type in all cases: cell-based
[1] = tested on: S. aureus (UAMS-1625 strain); experiment: MIC by broth microdilution against S. aureus; conditions: Staphylococcus aureus, 20 h, read-out: MIC S. aureus
[2] = tested on: A. baumannii (HUMC1 strain); experiment: MIC by broth microdilution against A. baumannii; conditions: Acinetobacter baumannii, RPMI medium supplemented with 10% FCS, 35° C. for 20 hours, visual reading
[3] = tested on: M. abscessus (ATCC 19977); experiment: MIC by broth microdilution against M. abscessus; conditions: Mycobacteroides abscessus
[4] = tested on: M. smegmatis (ATCC 700084); experiment: MIC against M. smegmatis (resazurin assay); conditions: Mycolicibacterium smegmatis, ATCC700084, Middlebrook 7H9 + ADC, 90% growth inhibition, 20 h
M. xenopi (ATCC 19250) = experiment: MIC against M. xenopi (resazurin assay); conditions: Mycobacterium xenopi, ATCC19250, 168 h, Middlebrook 7H9 + ADC, 90% growth inhibition, 7 days
M. avium (ATCC 25291) = experiment: MIC against M. avium (resazurin assay); conditions: Mycobacterium avium, ATCC25291, 168 h, Middlebrook 7H9 + ADC, 90% growth inhibition, 7 days
M. kansasii (ATCC 12478) = experiment: MIC against M. kansasii (resazurin assay); conditions: Mycobacterium kansasii, ATCC12478, 168 h, Middlebrook 7H9 + ADC, 90% growth inhibition, 7 days
[5] = tested on: M. tuberculosis H37Rv (ATCC 27294); experiment: microbe, parasite or virus in culture; conditions: Mycobacterium tuberculosis, 120 h
[6] = ATCC19977, 20 h, ATCC 19977, Middlebrook 7H9 broth with ADC supplement, visual reading, read-out: MIC M. abscessus
[7] = ATCC19977, 20 h, read-out: MIC M. abscessus

SMILES | MIC [1] [µg/mL] | MIC [2] [µg/mL] | MIC [3, 6] [µg/mL] | MIC [4] [µg/mL] | MIC (M. xenopi (ATCC 19250)) [µg/mL] | MIC (M. avium (ATCC 25291)) [µg/mL] | MIC (M. kansasii (ATCC 12478)) [µg/mL] | MIC [5] [µg/mL] | MIC [3, 7] [µg/mL] | MIC ([3]; ATCC19977, tested M. abscessus strains, read-out: MIC value on M. abscessus) [µg/mL]
CO[C@H]1/C=C/O[C@@]2(C)Oc3c(C)c(O)c4c(c3C2=O)C2=NC3(CCN(CC(C)C)CC3)NC2=C(NC(=O)/C(C)=C\C=C\[C@H](C)[C@H](O)[C@@H](C)[C@@H](O)[C@@H](C)[C@H](OC(=O)CNCCCN(C)C)[C@@H]1C)C4=O [Compound 12] | 0.03 (≈ 31.7 nM) | ≤ 0.002 | 1 (≈ 1060 nM) | 0.03 | 0.01 | 1.4 | 0.0055 | 0.003 (≈ 3.17 nM) | – | –
CO[C@H]1/C=C/O[C@@]2(C)Oc3c(C)c(O)c4c(c3C2=O)C2=NC3(CCN(CC(C)C)CC3)NC2=C(NC(=O)/C(C)=C\C=C\[C@H](C)[C@H](O)[C@@H](C)[C@@H](O)[C@@H](C)[C@H](OC(=O)CN2CCC(n3c(=O)[nH]c5ccccc53)CC2)[C@@H]1C)C4=O [Compound 18] | 0.5 (≈ 471 nM) | 0.03 (≈ 28.2 nM) | 0.5 (≈ 471 nM) | 0.09 | 0.01 | 1.3 | 0.01 | 0.002 (≈ 1.88 nM) | – | –
CO[C@H]1/C=C/O[C@@]2(C)Oc3c(C)c(O)c4c(c3C2=O)C2=NC3(CCN(CC(C)C)CC3)NC2=C(NC(=O)/C(C)=C\C=C\[C@H](C)[C@H](O)[C@@H](C)[C@@H](O)[C@@H](C)[C@H](OC(=O)CN2CCC(n3c(=O)[nH]c5cc(Cl)ccc53)CC2)[C@@H]1C)C4=O [Compound 19] | 4 (≈ 3650 nM) | 0.125 (≈ 114 nM) | 0.5 (≈ 456 nM) | 0.24 | 0.03 | 4 | 0.015 | 0.003 (≈ 2.74 nM) | – | –
CO[C@H]1/C=C/O[C@@]2(C)Oc3c(C)c(O)c4c(c3C2=O)C2=NC3(CCN(CC(C)C)CC3)NC2=C(NC(=O)/C(C)=C\C=C\[C@H](C)[C@H](O)[C@@H](C)[C@@H](O)[C@@H](C)[C@H](OC(=O)CN2CCC3(CC2)C(=O)NCN3c2ccccc2)[C@@H]1C)C4=O [Compound 20] | 0.5 (≈ 465 nM) | 0.03 (≈ 27.9 nM) | 0.25 (≈ 232 nM) | 0.1 | 0.03 | 0.5 | 0.01 | 0.003 (≈ 2.79 nM) | – | –
CO[C@H]1/C=C/O[C@@]2(C)Oc3c(C)c(O)c4c(c3C2=O)C2=NC3(CCN(CC(C)C)CC3)NC2=C(NC(=O)/C(C)=C\C=C\[C@H](C)[C@H](O)[C@@H](C)[C@@H](O)[C@@H](C)[C@H](OC(=O)CN2CCC(O)(Cc3ccccc3)CC2)[C@@H]1C)C4=O [Compound 24] | 0.125 (≈ 121 nM) | 0.016 (≈ 15.4 nM) | 1 (≈ 965 nM) | 0.1 | 0.01 | 2 | 0.01 | 0.004 (≈ 3.86 nM) | – | –
CO[C@H]1/C=C/O[C@@]2(C)Oc3c(C)c(O)c4c(c3C2=O)C2=NC3(CCN(CC(C)C)CC3)NC2=C(NC(=O)/C(C)=C\C=C\[C@H](C)[C@H](O)[C@@H](C)[C@@H](O)[C@@H](C)[C@H](OC(=O)CN2CCC(Oc3ccccc3)CC2)[C@@H]1C)C4=O [Compound 25] | 1 (≈ 978 nM) | 0.06 (≈ 58.7 nM) | 1 (≈ 978 nM) | 0.1 | 0.02 | 0.8 | 0.02 | 0.008 (≈ 7.83 nM) | – | –
CO[C@H]1/C=C/O[C@@]2(C)Oc3c(C)c(O)c4c(c3C2=O)C2=NC3(CCN(CC(C)C)CC3)NC2=C(NC(=O)/C(C)=C\C=C\[C@H](C)[C@H](O)[C@@H](C)[C@@H](O)[C@@H](C)[C@H](OC(=O)CN2CCC(N3CCCCC3)CC2)[C@@H]1C)C4=O [Compound 26] | 0.06 (≈ 59.2 nM) | ≤ 0.002 | 0.5 (≈ 493 nM) | 0.04 | 0.06 | 1.15 | 0.02 | 0.007 (≈ 6.91 nM) | – | –
CO[C@H]1/C=C/O[C@@]2(C)Oc3c(C)c(O)c4c(c3C2=O)C2=NC3(CCN(CC(C)C)CC3)NC2=C(NC(=O)/C(C)=C\C=C\[C@H](C)[C@H](O)[C@@H](C)[C@@H](O)[C@@H](C)[C@H](OC(=O)CN2CCC3C(CCCN3Cc3ccccc3)C2)[C@@H]1C)C4=O (stereo partly shown) [Compound 28] | 0.125 (≈ 116 nM) | 0.016 (≈ 14.9 nM) | – | 0.1 | 0.03 | 3.9 | 0.01 | 0.003 (≈ 2.79 nM) | 0.125 (≈ 116 nM) | –
CO[C@H]1/C=C/O[C@@]2(C)Oc3c(C)c(O)c4c(c3C2=O)C2=NC3(CCN(CC(C)C)CC3)NC2=C(NC(=O)/C(C)=C\C=C\[C@H](C)[C@H](O)[C@@H](C)[C@@H](O)[C@@H](C)[C@H](OC(=O)CN2CCC(NS(=O)(=O)c3ccccc3)CC2)[C@@H]1C)C4=O [Compound 29] | 0.5 (≈ 461 nM) | 0.03 (≈ 27.6 nM) | 0.25 (≈ 230 nM) | 0.09 | 0.01 | 0.6 | 0.01 | 0.003 (≈ 2.76 nM) | – | –
CO[C@H]1/C=C/O[C@@]2(C)Oc3c(C)c(O)c4c(c3C2=O)C2=NC3(CCN(CC(C)C)CC3)NC2=C(NC(=O)/C(C)=C\C=C\[C@H](C)[C@H](O)[C@@H](C)[C@@H](O)[C@@H](C)[C@H](OC(=O)CN2CCc3[nH]c5ccccc5c3C2)[C@@H]1C)C4=O [Compound 33] | 1 (≈ 983 nM) | 0.125 (≈ 123 nM) | 0.5 (≈ 492 nM) | 0.1 | 0.7 | 0.3 | 0.01 | 0.008 (≈ 7.86 nM) | – | –
CO[C@H]1/C=C/O[C@@]2(C)Oc3c(C)c(O)c4c(c3C2=O)C2=NC3(CCN(CC(C)C)CC3)NC2=C(NC(=O)/C(C)=C\C=C\[C@H](C)[C@H](O)[C@@H](C)[C@@H](O)[C@@H](C)[C@H](OC(=O)CN2CCCN(c3ccc(F)cc3)CC2)[C@@H]1C)C4=O [Compound 34] | 2 (≈ 1920 nM) | 0.125 (≈ 120 nM) | 0.5 (≈ 481 nM) | 0.11 | 0.01 | 0.5 | 0.009 | 0.008 (≈ 7.7 nM) | – | –
CO[C@H]1/C=C/O[C@@]2(C)Oc3c(C)c(O)c4c(c3C2=O)C2=NC3(CCN(CC(C)C)CC3)NC2=C(NC(=O)/C(C)=C\C=C\[C@H](C)[C@H](O)[C@@H](C)[C@@H](O)[C@@H](C)[C@H](OC(=O)C[n+]2ccc(N(C)C)cc2)[C@@H]1C)C4=O [Compound 35] | 0.06 | ≤ 0.002 | 0.5 | 0.03 | 0.04 | 0.8 | 0.003 | 0.0025 | – | –
CO[C@H]1/C=C/O[C@@]2(C)Oc3c(C)c(O)c4c(c3C2=O)C2=NC3(CCN(CC(C)C)CC3)NC2=C(NC(=O)/C(C)=C\C=C\[C@H](C)[C@H](O)[C@@H](C)[C@@H](O)[C@@H](C)[C@H](OC(=O)CN2CCC(N(C)c3ccccc3)CC2)[C@@H]1C)C4=O [Compound 39] | 0.125 (≈ 121 nM) | ≤ 0.03 | – | 0.06 | 0.003 | 0.4 | 0.003 | 0.0001 (≈ 0.0966 nM) | 0.125 (≈ 121 nM) | –
CO[C@H]1/C=C/O[C@@]2(C)Oc3c(C)c(O)c4c(c3C2=O)C2=NC3(CCN(CC(C)C)CC3)NC2=C(NC(=O)/C(C)=C\C=C\[C@H](C)[C@H](O)[C@@H](C)[C@@H](O)[C@@H](C)[C@H](OC(=O)CN2CCN(CC3CCCCC3)CC2)[C@@H]1C)C4=O [Compound 40] | 0.25 (≈ 243 nM) | 0.125 (≈ 122 nM) | 0.125 (≈ 122 nM) | 0.02 | 0.05 | 0.19 | 0.008 | 0.004 (≈ 3.89 nM) | – | –
CO[C@H]1/C=C/O[C@@]2(C)Oc3c(C)c(O)c4c(c3C2=O)C2=NC3(CCN(CC(C)C)CC3)NC2=C(NC(=O)/C(C)=C\C=C\[C@H](C)[C@H](O)[C@@H](C)[C@@H](O)[C@@H](C)[C@H](OC(C)=O)[C@@H]1C)C4=O [Rifabutin] | 0.016 (≈ 18.9 nM) | ≤ 0.002 | 8 (≈ 9440 nM) | 0.14 | 0.01 | 0.15 | 0.001 | 0.0003 (≈ 0.354 nM) | – | 8 (≈ 9440 nM)
